Test results: US7115608B2, “Pyridinone and pyridinethione derivatives having HIV inhibiting properties” (Centre National de la Recherche Schentifique, priority 2000, dated 2006)
Where two headings read alike, the source gives them in different places.

Experiments:
[1] = Cytotoxicity in mock-infected MT-4 cells (MTT); assay type: cell-based; settings: human, mock-infected MT-4 cells, concentration reducing absorbance of mock-infected MT-4 control by 50%
HIV-1 [2] = settings: for SI: selectivity index, ratio of CC50 to IC50
Method: (§1) A rapid, sensitive and automated assay procedure was used for the in vitro evaluation of anti-HIV agents. […] Inhibition of the HIV-induced cytopathic effect was used as the end point. The viability of both HIV- and mock-infected cells was assessed spectrophotometrically via the in situ reduction of 3-(4,5-dimethylthiazol-2-yl)-2,5-diphenyltetrazolium bromide (MTT). […] The percent protection achieved by the compound in HIV-infected cells was calculated by the following formula:
(§2) [formula] expressed in %, whereby (ODT)HIV is the optical density measured with a given concentration of the test compound in HIV-infected cells; (ODC)HIV is the optical density measured for the control untreated HIV-infected cells; (ODC)MOCK is the optical density measured for the control untreated mock-infected cells; all optical density values were determined at 540 nm. […] The ratio of CC50 to IC50 was defined as the selectivity index (SI).

HIV-1 [3] = experiment: microbe, parasite or virus in culture; settings: Human immunodeficiency virus 1, MT4
Method: as §1, §2

mock-infected MT-4 cells = experiment: Cytotoxicity in mock-infected MT-4 cells (MTT); assay type: cell-based; settings: concentration reducing absorbance of mock-infected MT-4 control by 50%

| SMILES | CC50 [1] [nM] | SI (HIV-1 [2]) | melting point [°C] | IC50 (HIV-1 [3]) [nM] | CC50 (mock-infected MT-4 cells) [nM] | IC50 (HIV-1 [2]; dose achieving 50% protection of HIV-infected MT-4 cells, MTT, OD 540 nm) [nM] |
| --- | --- | --- | --- | --- | --- | --- |
| CCOCc1c(C)[nH]c(=O)c(I)c1Sc1cc(C)cc(C)c1 [compound 86] | > 100000 | >31623 | 220 to 222 | 3.2 |  |  |
| CCc1c(C=O)[nH]c(=O)c(I)c1Oc1cc(C)cc(C)c1 [compound 159, 4-(3,5-dimethylphenoxy)-3-ethyl-1,6-dihydro-5-iodo-6-oxo-2-pyridinecarboxaldehyde] |  |  | 158 |  |  |  |
| Cc1cc(C)cc(Sc2c(CO)c(C)[nH]c(=O)c2I)c1 [compound 61] |  |  | 240 |  |  |  |
| C=Cc1c(Oc2cc(C)cc(C)c2)c(CC)c(C)[nH]c1=O [compound 234, 4-(3,5-dimethylphenoxy)-3-ethenyl-5-ethyl-6-methyl-2(1H)-pyridinone] | 10000 | 5012 |  | 2 |  |  |
| CCc1c(C)[nH]c(=O)c(I)c1[S+]([O-])c1cc(C)cc(C)c1 (stereo not drawn) [compound 108] | 50000 | 19953 |  | 2.5 |  |  |
| CCSCc1c(C)[nH]c(=O)c(I)c1Sc1cc(C)cc(C)c1 [compound 45] | > 100000 | >31623 |  | 3.2 |  |  |
| Cc1cc(C)cc(Oc2c(CCCc3ccccc3)c(C)[nH]c(=O)c2I)c1 [compound 547, 4-(3,5-dimethylphenoxy)-3-iodo-6-methyl-5-(3-phenyl-propyl)-1H-pyridin-2-one] | > 100000 | >15849 |  | 6.3 |  |  |
| Cc1cc(C)cc(Oc2c(CO)c(C)[nH]c(=O)c2I)c1 [compound 257, 4-(3,5-dimethylphenoxy)-5-(hydroxymethyl)-3-iodo-6-methyl-2(1H)-pyridinone] | > 32000 | >6310 |  | 5 |  |  |
| CCOCc1c(C)[nH]c(=O)c(Br)c1Sc1cc(C)cc(C)c1 [compound 85] | > 100000 | >31623 | 183 to 184 | 3.2 |  |  |
| CCc1c(C)[nH]c(=O)c(I)c1Oc1cc(Br)cc(/C=C/C#N)c1 [compound 470] | 13000 | 12589 |  | 1 |  |  |
| Cc1cc(C)cc(Oc2c(CCl)c(C)[nH]c(=O)c2I)c1 [compound 125, 5-(chloromethyl)-4-(3,5-dimethylphenoxy)-3-iodo-6-methyl-2(1H)-pyridinone] |  |  | 256 to 258 |  |  |  |
| CCc1c(C)[nH]c(=O)c(I)c1Oc1cc(I)cc(CC#N)c1 [compound 426, [3-(5-ethyl-3-iodo-6-methyl-2-oxo-1,2-dihydro-pyridin-4-yloxy)-5-iodo-phenyl]-acetonitrile] | 63000 | 39811 |  | 1.6 |  |  |
| CCc1c(C)[nH]c(=O)c(CC)c1Oc1cc(C)cc(C)c1 [compound 231, 4-(3,5-dimethylphenoxy)-3,5-diethyl-6-methyl-2(1H)-pyridinone] | 10000 | 3162 |  | 3.2 |  |  |
| Cc1cc(C)cc(Sc2c(CN3CCOCC3)c(C)[nH]c(=O)c2I)c1 [compound 43, 4-[(3,5-dimethylphenyl)-thio]-3-iodo-6-methyl-5-morpholinomethyl-1H-pyridin-2-one] | 10000 | 10000 |  | 1 |  |  |
| Cc1cc(C)cc(Oc2c(CSCc3csc(C)n3)c(C)[nH]c(=O)c2I)c1 [compound 483, 4-(3,5-dimethylphenoxy)-3-iodo-6-methyl-5-[2-methylthiazol-4-ylmethylsulfanylmethyl)-1H-pyridin-2-one] | > 100000 | >100000 |  | 1 |  |  |
| CCc1c(CO)[nH]c(=O)c(I)c1Oc1cc(C)cc(C)c1 [compound 133, 4-(3,5-dimethylphenoxy)-5-ethyl-6-(hydroxymethyl)-3-iodo-2(1H)-pyridinone] | > 10000 | >6310 |  | 1.6 |  |  |
| CCOCc1c(C)[nH]c(=O)c(I)c1Oc1cc(C)cc(C)c1 [compound 255, 4-(3,5-dimethylphenoxy)-5-(ethoxymethyl)-3-iodo-6-methyl-2(1H)-pyridinone] | > 10000 | >15849 | 234 to 236 | 0.6 |  |  |
| CC(=O)N1CCN(Cc2c(C)[nH]c(=O)c(I)c2Oc2cc(C)cc(C)c2)CC1 [compound 701] |  | 6310 |  |  | 63000 | 10 |
